Experimental data: patent US5990163A, “Selective modulation of processes mediated by retinoid X receptors, and compounds useful therefor” (The Salk Institute for Biological Studies, priority 1995, dated 1999)
Entries after “also recorded” stand apart in the source; their conditions may differ.

Assays:
GAL4-hRARα = molecular target: T1, GAL4-hRARα (Homo sapiens, UniProt P10276); test: Cotransfection with GAL4 chimeric receptor, TK-MH100×4-LUC reporter in CV-1 cells; assay type: cell-based; details: 10^-5 M ligand
T1 construct: CMX plasmid, CV-1 cells, TK-MH100x4-LUC
T1 sequence (P10276 203-462): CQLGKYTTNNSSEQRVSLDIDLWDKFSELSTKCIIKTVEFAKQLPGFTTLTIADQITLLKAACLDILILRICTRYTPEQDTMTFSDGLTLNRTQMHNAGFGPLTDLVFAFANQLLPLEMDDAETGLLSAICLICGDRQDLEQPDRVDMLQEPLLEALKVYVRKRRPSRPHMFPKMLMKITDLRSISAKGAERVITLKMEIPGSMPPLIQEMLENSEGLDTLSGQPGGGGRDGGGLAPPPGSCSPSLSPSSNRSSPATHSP
Source text: (§1) Thus, CV-1 cells were cotransfected with the expression plasmid CMX-GAL4-hRXRα, CMX-GAL4-hRARα, CMX-GAL4-RARβ or CMX-GAL4-RARγ and the reporter plasmid TK-MH100×4-LUC. The constructs consisted of the GAL4 DNA binding domain (amino acids 1-147; see Sadowski and Ptashne in Nucl. Acids Res. 17:7539 (1989)) ligated in frame to the ligand binding and C-terminal activation domains of hRARα (amino acids 203-462; see Giguere et al., in Nature 330:624 (1987), hRARβ (amino acids 178-448; see Brand et al., in Nature 332:850 (1988), RARγ (amino acids 187-454; see Ishikawa et al., in Mol. Endo. 4:837 (1990) and RXRα (amino acids 203-462; see Mangelsdorf et al., in Nature 345:224 (1990). These GAL4-receptor chimeras were then introduced into CMX expression vectors (see Umesono et al., in Cell 65:1255 (1991)). The GAL4-responsive reporter plasmid, TK-MH100×4-LUC, was constructed by inserting 4 copies of the yeast UASG enhancer (i.e., MH100; see Webster et al., in Cell 52:169 (1988)) into the luciferase reporter plasmid TK-LUC. CV-1 cells seeded into 48 well culture plates were co-transfected with 80 ng of the reporter plasmid TK-Mh100×4-LUC, 50 ng of CMX-βgal expression plasmid, and 80 ng of receptor expression plasmid (either CMX-GAL4 as a control, CMX-GAL4-hRARα, CMX-GAL4-hRARβ, CMX-GAL4-hRARγ or CMX-GAL4-hRXRα). […] Cotransfections, ligand addition and luciferase assays were performed as described in Example 3.
(§2) The above-described chimeric proteins can bind to a GAL4 upstream activation sequence (UASG) in the promoter of a luciferase reporter, but can only activate transcription in the presence of the hybrid receptor's ligand. The distinct advantage of using the GAL4-receptor system, instead of the wild-type receptors and response elements, is that the GAL4-hybrids provide a sensitive and effective means for assaying receptor/ligand interactions, even in the presence of the cell's endogenous wild-type receptors.

GAL4-hRARβ = molecular target: T2, GAL4-hRARβ (Homo sapiens, UniProt P10826); test: as above; assay type: cell-based; details: 10^-5 M ligand
T2 construct: CMX plasmid, CV-1 cells, TK-MH100x4-LUC
T2 sequence (P10826 185-455): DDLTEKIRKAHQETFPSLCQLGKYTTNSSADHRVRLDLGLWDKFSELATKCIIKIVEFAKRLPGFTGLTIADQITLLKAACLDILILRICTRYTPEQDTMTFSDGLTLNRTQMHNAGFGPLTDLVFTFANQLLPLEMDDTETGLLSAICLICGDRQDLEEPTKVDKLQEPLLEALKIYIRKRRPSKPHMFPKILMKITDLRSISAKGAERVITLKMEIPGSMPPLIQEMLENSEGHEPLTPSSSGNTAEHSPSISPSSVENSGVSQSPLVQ
Source text: as §1, §2

GAL4-hRARγ = molecular target: T3, GAL4-hRARγ (Homo sapiens, UniProt P13631); test: as above; assay type: cell-based; details: 10^-5 M ligand
T3 construct: CMX plasmid, CV-1 cells, TK-MH100x4-LUC
T3 sequence (P13631 187-454): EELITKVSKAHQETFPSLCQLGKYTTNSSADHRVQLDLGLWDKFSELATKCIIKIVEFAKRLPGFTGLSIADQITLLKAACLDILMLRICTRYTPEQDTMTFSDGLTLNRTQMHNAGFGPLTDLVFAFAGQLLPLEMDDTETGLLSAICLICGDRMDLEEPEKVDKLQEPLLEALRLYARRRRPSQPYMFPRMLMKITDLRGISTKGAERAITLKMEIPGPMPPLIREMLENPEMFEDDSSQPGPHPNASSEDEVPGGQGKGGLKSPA
Source text: as §1, §2

hRXRα [1] = molecular target: T4, hRXRα (Homo sapiens, UniProt P19793); test: Cotransfection assay in Schneider cells, RXR expression plasmid and ADH-CRBPII-LUC luciferase reporter; assay type: cell-based; details: for activation of RXR (transcription from the reporter construct), in words: Schneider cells, ADH-CRBPII-LUC
T4 sequence (P19793 1-462): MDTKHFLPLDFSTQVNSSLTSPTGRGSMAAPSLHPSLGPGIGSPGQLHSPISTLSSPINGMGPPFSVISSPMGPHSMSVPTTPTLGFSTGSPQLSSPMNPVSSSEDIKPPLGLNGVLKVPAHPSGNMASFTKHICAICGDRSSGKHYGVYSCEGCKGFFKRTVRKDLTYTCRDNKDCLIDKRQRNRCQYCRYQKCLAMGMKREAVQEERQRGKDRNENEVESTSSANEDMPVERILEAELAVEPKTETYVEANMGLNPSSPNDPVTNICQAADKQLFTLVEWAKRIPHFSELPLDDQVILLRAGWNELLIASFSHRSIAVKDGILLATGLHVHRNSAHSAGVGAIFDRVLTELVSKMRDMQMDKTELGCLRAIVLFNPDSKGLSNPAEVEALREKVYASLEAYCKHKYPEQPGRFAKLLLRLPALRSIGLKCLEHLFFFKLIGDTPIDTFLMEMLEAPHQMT
Protocol: Candidate ligands were initially tested in Schneider cells cotransfected with an RXR expression plasmid and a luciferase reporter plasmid containing an RXR specific response element.
Cell lysates were then assayed for luciferase activity, which is expressed as relative light units (RLU) and represents the mean of triplicate assays (±SEM) normalized to β-galactosidase as an internal control. […] After 24 hours, ligand was added to the transfected cells. Thirty six hours later, the cells were harvested and extracts prepared and assayed for enzyme activity as described by Heyman et al., supra, and Clayton, supra. Luciferase values were normalized for transfection and harvesting efficiency by measuring β-galactosidase activity, and the results reported as average relative light units (RLU) for at least two replicates.

GAL4-hRXRα = molecular target: T5, GAL4-hRXRα (Homo sapiens, UniProt P19793); test: Cotransfection with GAL4 chimeric receptor, TK-MH100×4-LUC reporter in CV-1 cells; assay type: cell-based; details: 10^-5 M ligand
T5 construct: CMX plasmid, CV-1 cells, TK-MH100x4-LUC
T5 sequence (P19793 203-462): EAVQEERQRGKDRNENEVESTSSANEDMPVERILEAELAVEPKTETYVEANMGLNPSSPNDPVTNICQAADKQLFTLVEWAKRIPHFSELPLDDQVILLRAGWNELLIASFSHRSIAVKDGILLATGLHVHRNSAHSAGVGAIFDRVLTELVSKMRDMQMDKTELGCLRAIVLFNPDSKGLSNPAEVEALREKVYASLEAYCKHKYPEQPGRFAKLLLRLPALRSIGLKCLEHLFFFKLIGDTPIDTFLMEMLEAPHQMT
Source text: as §1, §2

hRXRα [2] = molecular target: T4, hRXRα; test: Competitive ligand binding, competition for [3H]9cRA binding; details: 40 nM [3H]9cRA, increasing concentrations of unlabelled compound
Protocol: Binding analysis was performed as described by Boehm et al., in J. Med. Chem. 37:2930-2941 (1994). Compounds used in these studies were prepared according to Wecksler and Norman (Anal. Biochem. 92:314-323 (1979).

mouse RXRα = test: Transactivation dose response, CRBPII-LUC reporter in Schneider and CV-1 cells; assay type: cell-based; details: Schneider cells and CV-1 cells
Protocol: (§3) Cell lysates were then assayed for luciferase activity, which is expressed as relative light units (RLU) and represents the mean of triplicate assays (±SEM) normalized to β-galactosidase as an internal control. Thus, Schneider cells in 6-well culture plates were co-transfected with 0.5 μg ADH-CRBPII-LUC, 0.5 μg A5C-βgal and 1 μg of receptor plasmid (either A5C-mRXRα, A5C-mRXRβ, A5C-mRXRγ or A5C-hRXRα) by the CaPO4 precipitation method, as described by Heyman et al., in Cell 68:397 (1992) and Clayton in Aspects of Terpenoid Chemistry and Biology, T. W. Goodwin, ed. (Academic Press, London) pp. 1-23 (1971). After 24 hours, ligand was added to the transfected cells. Thirty six hours later, the cells were harvested and extracts prepared and assayed for enzyme activity as described by Heyman et al., supra, and Clayton, supra. Luciferase values were normalized for transfection and harvesting efficiency by measuring β-galactosidase activity, and the results reported as average relative light units (RLU) for at least two replicates.
(§4) To further test the ability of methoprene acid to function as an RXR ligand, the transactivation properties of methoprene on all three RXR subtypes was investigated. FIG. 3 presents the dose responses of the three RXR subtypes to methoprene acid in insect Schneider cells (FIG. 3A), or mammalian CV-1 cells (FIG. 3B) cotransfected with expression plasmids for mouse RXRα, RXRβ, or RXRγ and the reporter plasmid ADH-CRBPII-LUC (for Schneider cells) or TK-CRBPII-LUC (for CV-1 cells).
(§5) Experiments in Schneider cells were conducted as described in Example 1. Experiments in CV-1 cells were conducted as follows. CV-1 cells were seeded into 48-well sulture dishes and co-transfected with 50 ng of TK-CRBPII-LUC reporter plasmid, 50 ng of CMX-βgal expression plasmid, and 25 ng of expression plasmid for receptor (either CMX-mRXRα, CMX-mRXRβ or CMX-mRXRγ) by the CaPO4 precipitation method, as described by Heyman et al., supra and Clayton supra. […] Luciferase activity was determined as described by Unsworth et al., in Life Sciences 15:1649 (1974).

mouse RXRβ = test: as above; assay type: cell-based; details: Schneider cells and CV-1 cells
Protocol: as §3, §4, §5

mouse RXRγ = test: as above; assay type: cell-based; details: Schneider cells and CV-1 cells
Protocol: as §3, §4, §5

RXR-alpha = test: Expression of genes under the control of regulatory elements of apolipoprotein AI; assay type: cell-based
[3] = previous studies (Quistad et al.); a major product is methoprene acid; cited from earlier work
[4] = 36 h, read-out: induction of luciferase reporter above methanol control

CC1=C(/C=C/C(C)=C\C=C\C(C)=C\C(=O)O)C(C)(C)CCC1 [9cRA, 9-cis-retinoic acid, reference compound]
activation of transcription with GAL4-RARα, in words (GAL4-hRARα): can activate transcription | activation of transcription with GAL4-RARβ, in words (GAL4-hRARβ): can activate transcription | activation of transcription with GAL4-RARγ, in words (GAL4-hRARγ): can activate transcription

COC(=O)/C=C(\C)CC/C=C(\C)CCC1OC1(C)C (stereo not drawn) [JH III, methyl (2E,6E)-10,11-epoxy-3,7,11-trimethyl-2,6dodecadienoate, reference compound]
activation of RXR (transcription from the reporter construct), in words (hRXRα [1]): do not activate RXR

C/C(=C\c1ccc(C(=O)O)cc1)c1ccc2c(c1)C(C)(C)CCC2(C)C [TTNPB, (E)-4-[2-(5,6,7,8-tetrahydro-5,5,8,8-tetramethyl-2-napthalenyl)-1-propenyl]benzoic acid, reference compound]
activation of transcription with GAL4-RXR, in words (GAL4-hRXRα): exclusive response

CC(C)=CCC/C(C)=C/CC/C(C)=C/CO [farnesol, (2E,6E,10E)-3,7,11-trimethyl-2,6,10-dodecatrienol, reference compound]
activation of RXR (transcription from the reporter construct), in words (hRXRα [1]): do not activate RXR

CC(/C=C/CC(C)CCCC(C)C)=C\C(=O)O (stereo not drawn) [hydroprene acid]
fold induction at 100 µM (hRXRα [1]; [4]): 81 | competition for [3H]9cRA binding to RXRα, in words (hRXRα [2]): observed to bind RXR

CCOC(=O)/C=C(C)/C=C/CC(C)CCCC(C)C (stereo not drawn) [hydroprene, ethyl (2E,4E)-3,7,11-trimethyl-2,4-dodecadienoate]
activation of RXR (transcription from the reporter construct), in words (hRXRα [1]): activate RXR | competition for [3H]9cRA binding to RXRα, in words (hRXRα [2]): not

COC(C)(C)CCCC(C)C/C=C/C(C)=C/C(=O)O (stereo not drawn) [methoprene acid]
fold induction at 10 µM (hRXRα [1]; [4]): 95 | competition for [3H]9cRA binding to RXRα, in words (hRXRα [2]): competes well | response of RXRα (transactivation), in words (mouse RXRα): respond strongly | response of RXRβ (transactivation), in words (mouse RXRβ): responds only weakly | response of RXRγ (transactivation), in words (mouse RXRγ): respond strongly | activation of transcription with GAL4-RARα, in words (GAL4-hRARα): specific for activation of only the GAL4-RXR | activation of transcription with GAL4-RARβ, in words (GAL4-hRARβ): specific for activation of only the GAL4-RXR | activation of transcription with GAL4-RARγ, in words (GAL4-hRARγ): specific for activation of only the GAL4-RXR | activation of transcription with GAL4-RXR, in words (GAL4-hRXRα): specific for activation of only the GAL4-RXR | effect of RXR-alpha in the presence of ligand on expression of genes under apolipoprotein AI regulatory elements (RXR-alpha): strong effect

COC(C)(C)CCCC(C)C/C=C/C(C)=C/C(=O)OC(C)C (stereo not drawn) [methoprene, isopropyl (2E,4E)-11-methoxy-3,7,11-trimethyl-2,4-dodecadienoate]
fold induction at 100 µM (hRXRα [1]; [4]): 80 | activation of RXR (transcription from the reporter construct), in words (hRXRα [1]): activate RXR | competition for [3H]9cRA binding to RXRα, in words (hRXRα [2]): unable to displace 9cRA binding at any concentration; also recorded: unable to competitively bind RXR at any concentration | metabolism within cells [3]: metabolized within cells to several products
